The text below walks through data of US12264134B2 (Merck Sharp & Dohme LLC, priority 2018, dated 2025).

SMILES strings stand for the structures.

What is called IC50 is the midpoint of a concentration-inhibition curve.

In this assay the target is IDO1 (Homo sapiens, UniProt P14902). Briefly: IDO1 Cellular Assay in HeLa Cells Stimulated with IFNγ. Format: cell-based. The conditions noted are these: read-out: HeLa Cell Potency, IC50.
Sequence of IDO1 (P14902 whole entry): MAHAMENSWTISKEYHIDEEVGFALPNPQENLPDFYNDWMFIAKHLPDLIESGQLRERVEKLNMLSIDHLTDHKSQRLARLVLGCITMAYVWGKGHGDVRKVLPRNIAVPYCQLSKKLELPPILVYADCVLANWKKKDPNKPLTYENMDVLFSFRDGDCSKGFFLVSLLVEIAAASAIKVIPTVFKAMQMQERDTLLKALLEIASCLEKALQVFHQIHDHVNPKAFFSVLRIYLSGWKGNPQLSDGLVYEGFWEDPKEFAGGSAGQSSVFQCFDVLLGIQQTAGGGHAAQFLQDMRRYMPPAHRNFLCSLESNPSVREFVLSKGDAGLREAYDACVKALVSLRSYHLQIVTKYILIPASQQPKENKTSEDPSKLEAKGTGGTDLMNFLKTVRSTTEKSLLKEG
As for `C[C@@H]1CN(C(=O)c2nn(CC(=O)N3CCN(c4ccccc4Cl)CC3)c3c2CCC3)C[C@H](C)O1` [Example 55, 1-[4-(2-chlorophenyl)piperazin-1-yl]-2-{3-[(2R,6S)-2,6-dimethylmorpholine-4-carbonyl]-5,6-dihydrocyclopenta[c]pyrazol-1(4H)-yl}ethan-1-one], the IC50 was 244 nM. As for `Cc1ccc(N2CCN(C(=O)Cn3nc(C(=O)N4C[C@@H](C)O[C@@H](C)C4)c4c3CCC4)CC2)c(F)c1` [Example 56, 2-{3-[(2R,6S)-2,6-dimethylmorpholine-4-carbonyl]-5,6-dihydrocyclopenta[c]pyrazol-1(4H)-yl}-1-[4-(2-fluoro-4-methylphenyl)piperazin-1-yl]ethan-1-one], the IC50 was 126 nM. As for `C[C@@H]1CN(C(=O)c2nn(CC(=O)N3CCN(c4ccc(F)c(C(F)F)c4)CC3)c3c2CCC3)C[C@H](C)O1` [Example 58, 1-{4-[3-(difluoromethyl)-4-fluorophenyl]piperazin-1-yl}-2-{3-[(2R,6S)-2,6-dimethylmorpholine-4-carbonyl]-5,6-dihydrocyclopenta[c]pyrazol-1(4H)-yl}ethan-1-one], the concentration for half-maximal inhibition (IC50) is 447 nM. As for `C[C@@H]1CN(C(=O)c2nn(CC(=O)N3CCN(c4ccccc4C4CC4)CC3)c3c2CCC3)C[C@H](C)O1` [Example 59, 1-[4-(2-cyclopropylphenyl)piperazin-1-yl]-2-{3-[(2R,6S)-2,6-dimethylmorpholine-4-carbonyl]-5,6-dihydrocyclopenta[c]pyrazol-1(4H)-yl}ethan-1-one], the figure is 319 nM; as for `CCc1cccc(N2CCN(C(=O)Cn3nc(C(=O)N4C[C@@H](C)O[C@@H](C)C4)c4c3CCC4)CC2)c1` [Example 60, 2-{3-[(2R,6S)-2,6-dimethylmorpholine-4-carbonyl]-5,6-dihydrocyclopenta[c]pyrazol-1(4H)-yl}-1-[4-(3-ethylphenyl)piperazin-1-yl]ethan-1-one], 209 nM. In the case of `Cc1ccc(N2CCN(C(=O)Cn3nc(C(=O)N4C[C@@H](C)O[C@@H](C)C4)c4c3CCC4)CC2)cc1Cl` [Example 61, 1-[4-(3-chloro-4-methylphenyl)piperazin-1-yl]-2-{3-[(2R,6S)-2,6-dimethylmorpholine-4-carbonyl]-5,6-dihydrocyclopenta[c]pyrazol-1(4H)-yl}ethan-1-one] it was 65.6 nM; in that of `COc1cc(F)c(N2CCN(C(=O)Cn3nc(C(=O)N4C[C@@H](C)O[C@@H](C)C4)c4c3CCC4)CC2)cc1F` [Example 62, 1-[4-(2,5-difluoro-4-methoxyphenyl)piperazin-1-yl]-2-{3-[(2R,6S)-2,6-dimethylmorpholine-4-carbonyl]-5,6-dihydrocyclopenta[c]pyrazol-1(4H)-yl}ethan-1-one], 146 nM. As for `COc1c(C#N)cccc1N1CCN(C(=O)Cn2nc(C(=O)N3C[C@@H](C)O[C@@H](C)C3)c3c2CCC3)CC1` [Example 63, 3-[4-({3-[(2R,6S)-2,6-dimethylmorpholine-4-4-carbonyl]-5,6-dihydrocyclopenta[c]pyrazol-1(4H)-yl}acetyl)piperazin-1-yl]-2-methoxybenzonitrile], the figure is 335 nM. Turning to `Cc1ccc(N2CCN(C(=O)Cn3nc(C(=O)N4C[C@@H](C)O[C@@H](C)C4)c4c3CCC4)CC2)cc1F` [Example 64, 2-{3-[(2R,6S)-2,6-dimethylmorpholine-4-carbonyl]-5,6-dihydrocyclopenta[c]pyrazol-1(4H)-yl}-1-[4-(3-fluoro-4-methylphenyl)piperazin-1-yl]ethan-1-one], the IC50 is 30.4 nM. `COc1c(F)cccc1N1CCN(C(=O)Cn2nc(C(=O)N3C[C@@H](C)O[C@@H](C)C3)c3c2CCC3)CC1` [Example 65, 2-{3-[(2R,6S)-2,6-dimethylmorpholine-4-carbonyl]-5,6-dihydrocyclopenta[c]pyrazol-1(4H)-yl}-1-[4-(3-fluoro-2-methoxyphenyl)piperazin-1-yl]ethan-1-one]: the IC50 turned out to be 145 nM. As for `C[C@@H]1CN(C(=O)c2nn(CC(=O)N3CCN(c4ccc(Cl)cc4Cl)CC3)c3c2CCC3)C[C@H](C)O1` [Example 67, 1-[4-(2,4-dichlorophenyl)piperazin-1-yl]-2-{3-[(2R,6S)-2,6-dimethylmorpholine-4-carbonyl]-5,6-dihydrocyclopenta[c]pyrazol-1(4H)-yl}ethan-1-one], the figure is 133 nM; as for `C[C@@H]1CN(C(=O)c2nn(CC(=O)N3CCN(c4cccc(Cl)c4Cl)CC3)c3c2CCC3)C[C@H](C)O1` [Example 69, 1-[4-(2,3-dichlorophenyl)piperazin-1-yl]-2-{3-[(2R,6S)-2,6-dimethylmorpholine-4-carbonyl]-5,6-dihydrocyclopenta[c]pyrazol-1(4H)-yl}ethan-1-one], 12.1 nM; as for `C[C@@H]1CN(C(=O)c2nn(CC(=O)N3CCN(c4ccc(F)c(F)c4F)CC3)c3c2CCC3)C[C@H](C)O1` [Example 70, 2-{3-[(2R,6S)-2,6-dimethylmorpholine-4-carbonyl]-5,6-dihydrocyclopenta[c]pyrazol-1(4H)-yl}-1-[4-(2,3,4-trifluorophenyl)piperazin-1-yl]ethan-1-one], 235 nM.

Regarding `Cc1cc(C)c(N2CCN(C(=O)Cn3nc(C(=O)N4C[C@@H](C)O[C@@H](C)C4)c4c3CCC4)CC2)cc1C` [Example 71, 2-{3-[(2R,6S)-2,6-dimethylmorpholine-4-carbonyl]-5,6-dihydrocyclopenta[c]pyrazol-1(4H)-yl}-1-[4-(2,4,5-trimethylphenyl)piperazin-1-yl]ethan-1-one], the IC50 is 145 nM. `CCc1ccccc1N1CCN(C(=O)Cn2nc(C(=O)N3C[C@@H](C)O[C@@H](C)C3)c3c2CCC3)CC1` [Example 72, 2-{3-[(2R,6S)-2,6-dimethylmorpholine-4-carbonyl]-5,6-dihydrocyclopenta[c]pyrazol-1(4H)-yl}-1-[4-(2-ethylphenyl)piperazin-1-yl]ethan-1-one]: the IC50 is 125 nM. On to `C[C@@H]1CN(C(=O)c2nn(CC(=O)N3CCN(c4ccc5c(c4)CCCO5)CC3)c3c2CCC3)C[C@H](C)O1` [Example 73, 1-[4-(3,4-dihydro-2H-1-benzopyran-6-yl)piperazin-1-yl]-2-{3-[(2R,6S)-2,6-dimethylmorpholine-4-carbonyl]-5,6-dihydrocyclopenta[c]pyrazol-1(4H)-yl}ethan-1-one], for which the half-inhibitory concentration (IC50) came to 176 nM.

On to `C[C@@H]1CN(C(=O)c2nn(CC(=O)N3CCN(c4cc(F)c(F)cc4F)CC3)c3c2CCC3)C[C@H](C)O1` [Example 74, 2-{3-[(2R,6S)-2,6-dimethylmorpholine-4-carbonyl]-5,6-dihydrocyclopenta[c]pyrazol-1(4H)-yl}-1-[4-(2,4,5-trifluorophenyl)piperazin-1-yl]ethan-1-one], for which the IC50 was determined as 289 nM.

On to `Cc1ccc(F)cc1N1CCN(C(=O)Cn2nc(C(=O)N3C[C@@H](C)O[C@@H](C)C3)c3c2CCC3)CC1` [Example 75, 2-{3-[(2R,6S)-2,6-dimethylmorpholine-4-carbonyl]-5,6-dihydrocyclopenta[c]pyrazol-1(4H)-yl}-1-[4-(5-fluoro-2-methylphenyl)piperazin-1-yl]ethan-1-one], for which the IC50 worked out at 34.1 nM. In the case of `C[C@@H]1CN(C(=O)c2nn(CC(=O)N3CCN(c4cc(F)ccc4F)CC3)c3c2CCC3)C[C@H](C)O1` [Example 76, 1-[4-(2,5-difluorophenyl)piperazin-1-yl]-2-{3-[(2R,6S)-2,6-dimethylmorpholine-4-carbonyl]-5,6-dihydrocyclopenta[c]pyrazol-1(4H)-yl}ethan-1-one] it was 439 nM.
